Data from article PMC4644816, “A Tetrameric Peptide Derived from Bovine Lactoferricin Exhibits Specific Cytotoxic Effects against Oral Squamous-Cell Carcinoma Cell Lines” (BioMed Research International, 2015).
Where a SMILES comes first, the peptide text is derived from it. Bridges are numbered along the chain shown (N, C = ends). Roman numbers before positions name the chains, in order. Where no end group is shown, it is not given here. [ ]: non-standard residue; d: D form. Ahx = NCCCCCC(=O)O

Tests used:
CAL27 cells [1] = assay: MTT cytotoxic assay, CAL27; format: cell-based
Experimental: (§1) The cell lines CAL27 (ATCC CRL-2095) and SCC15 (ATCC CRL-1623) and the human immortalized nontumorigenic epithelial esophagus cell line Het-1A (ATCC CRL-2692) were purchased from ATCC (Manassas, VA). CAL27 cells were cultured in Dulbecco's Modified Eagle's Medium (DMEM; Gibco) with 10% of fetal bovine serum (FBS; Gibco). […] Het-1A cells were cultured in Bronchial Epithelial Cell Growth Medium (BEBM) with the additives obtained from Lonza/Clonetics Corporation as a kit (CC-3170), without antibiotics. All cells were maintained at 37°C in a 5% CO2 humidified atmosphere. For Het-1A cells, the culture flasks were precoated with fibronectin (0.01 mg/mL), bovine collagen type I (0.03 mg/mL), and bovine serum albumin (0.01 mg/mL) dissolved in a culture medium and incubated for 24 h before culturing the cells. Cell stocks were prepared and thawed periodically and used in early subcultures (not exceeding 5–10 population doublings). Cell viability was estimated by Trypan blue exclusion staining and was always higher than 97%. Growth curves for each cell line were done using 3-(4,5-dimethylthiazol-2-yl)-2,5-diphenyltetrazolium bromide (MTT). […] SCC15 cells having a mesenchymal- or epithelia-like phenotype were separated by their differential adherence to plastic dish and characterized for the expression of specific markers (see Section 2.7). Cytotoxic activity was determined using the MTT assay. Briefly, cells were seeded in 96-well plates with a confluence of approximately 70% (8 × 10^3 CAL27-cells/well, 4 × 10^3 SCC15-cells/well, and 1.6 × 10^4 Het-1A-cells/well). After cell adherence, the culture medium was removed and peptides at different concentrations (between 100 and 6.25 μg/mL) and times (between 1 and 24 h or 48, 72, and 96 h) were added to the wells in the absence of FBS. Staurosporine (STA) was used as positive control (CAL27: 0.4 μg/mL, SCC15 0.6 μg/mL, and Het-1A 0.6 μg/mL). Phase-contrast photomicrographs of the treated cells were taken (Nikon, Eclipse TS500). After treatment, the medium was replaced with 100 μL of complete culture media with 10% of MTT (5 mg/mL), and cells were incubated for 4–6 h. Finally, 100 μL of DMSO was added in order to lyse the cells and release and solubilize the Formazan crystals. After 10 min of incubation at 37°C, absorbance was measured at 550 nm. […] In some experiments and after treatments, remaining viable cells were treated again with peptides. Cells were first treated with peptides for 24 h and washed carefully and then fresh culture medium was added and cells were further incubated for 72 h.

Het-1A cells [2] = assay: MTT cytotoxic assay, Het-1A; format: cell-based, human
Experimental: as §1

SCC15 cells = assay: MTT cytotoxic assay, SCC15; format: cell-based
Experimental: as §1

[3] = tested on: normal human erythrocytes; format: cell-based
Experimental: 5 mL of heparinized peripheral blood was centrifuged at 1000 g for 7 min. The erythrocyte-rich fraction was resuspended in 10 mL of PBS and washed twice by centrifugation at 1000 g for 7 min. […] PBS was used as negative control, while Tween-20 (20% v/v) in PBS was used as positive controls. The 96-well plates were centrifuged, the supernatants were collected, and the absorbance was determined at 540 nm.

Het-1A cells [4] = assay: Apoptotic/necrotic assay (Annexin V-FITC/PI flow cytometry), Het-1A; conditions: 1 h treatment
Experimental: (§2) 1 × 10^5 CAL27 and Het-1A cells were treated with peptides for 1 h at 37°C and then labeled with Annexin V-FITC/PI, using the Dead Cell Apoptosis Kit for flow cytometry (Thermo Fisher Scientific). As a control for necrosis, the cells were treated for 5 min with 0.2% T-X100.

CAL27 cells [5] = assay: Apoptotic/necrotic assay (Annexin V-FITC/PI flow cytometry), CAL27; conditions: CAL27, 1 h treatment
Experimental: as §2

Compound | cytotoxicity (CAL27 cells [1]; CAL27, 24 h, highest concentration tested 100 μg/mL (LfB 1.25 μM, LfcinB25 32 μM, LfcinB(20–25)4 22.25 μM), MTT) [%] | cytotoxicity (Het-1A cells [2]; Het-1A, 24 h, highest concentration tested 100 μg/mL (LfB 1.25 μM, LfcinB25 32 μM, LfcinB(20–25)4 22.25 μM), MTT) [%] | cytotoxicity (SCC15 cells; SCC15, 24 h, highest concentration tested 100 μg/mL (LfB 1.25 μM, LfcinB25 32 μM, LfcinB(20–25)4 22.25 μM), MTT) [%] | cytotoxicity of a second addition of the peptide (in words) (CAL27 cells [1]) | IC50 (CAL27 cells [1]; 1 h) [µM] | IC50 (CAL27 cells [1]; 3 h) [µM] | IC50 (CAL27 cells [1]; 24 h) [µM] | concentration at which lysis of erythrocytes was shown [3] [µg/mL] | apoptotic cell population (PI−/Annexin+), in words (Het-1A cells [4]) | IC50 (Het-1A cells [2]; 3 h) [µM] | IC50 (Het-1A cells [2]; 24 h) [µM] | IC50 (SCC15 cells; 1 h) [µM] | IC50 (SCC15 cells; 3 h) [µM] | IC50 (SCC15 cells; 24 h) [µM] | apoptotic cell population (PI−/Annexin+), in words (CAL27 cells [5]) | IC50 (Het-1A cells [2]; 1 h) [µM] | cytotoxic effect (in words) (CAL27 cells [1]; CAL27, 24 h, MTT, up to 100 μg/mL) | cytotoxic effect (in words) (Het-1A cells [2]; Het-1A, 24 h, MTT, at 40 μM) | cytotoxic effect (in words) (SCC15 cells; SCC15, 24 h, MTT, up to 100 μg/mL)
CC[C@H](C)[C@H](NC(=O)[C@H](CO)NC(=O)[C@@H]1CCCN1C(=O)[C@H](C)NC(=O)CNC(=O)[C@H](CC(C)C)NC(=O)[C@H](CCCCN)NC(=O)[C@H](CCCCN)NC(=O)[C@H](CCSC)NC(=O)[C@H](CCCNC(=N)N)NC(=O)[C@H](Cc1c[nH]c2ccccc12)NC(=O)[C@H](CCC(N)=O)NC(=O)[C@H](Cc1c[nH]c2ccccc12)NC(=O)[C@H](CCCNC(=N)N)NC(=O)[C@H](CCCNC(=N)N)NC(=O)[C@H](CS)NC(=O)[C@H](CCCCN)NC(=O)[C@@H](N)Cc1ccccc1)C(=O)N[C@H](C(=O)N[C@@H](CS)C(=O)N[C@H](C(=O)N[C@@H](CCCNC(=N)N)C(=O)N[C@@H](CCCNC(=N)N)C(=O)N[C@@H](C)C(=O)N[C@@H](Cc1ccccc1)C(N)=O)C(C)C)[C@@H](C)O [LfcinB25, reference compound] | 64.4 | 60.5 | 60 |  |  |  |  |  |  |  |  |  |  |  |  |  |  |  | 
N=C(N)NCCC[C@H](NC(=O)[C@H](Cc1c[nH]c2ccccc12)NC(=O)[C@H](CCC(N)=O)NC(=O)[C@H](Cc1c[nH]c2ccccc12)NC(=O)[C@H](CCCNC(=N)N)NC(=O)[C@@H](N)CCCNC(=N)N)C(=O)NCCCC[C@H](NC(=O)[C@H](CCCNC(=N)N)NC(=O)[C@H](Cc1c[nH]c2ccccc12)NC(=O)[C@H](CCC(N)=O)NC(=O)[C@H](Cc1c[nH]c2ccccc12)NC(=O)[C@H](CCCNC(=N)N)NC(=O)[C@@H](N)CCCNC(=N)N)C(=O)NCCCCCC(=O)N[C@@H](CSSC[C@H](NC(=O)CCCCCNC(=O)[C@H](CCCCNC(=O)[C@H](CCCNC(=N)N)NC(=O)[C@H](Cc1c[nH]c2ccccc12)NC(=O)[C@H](CCC(N)=O)NC(=O)[C@H](Cc1c[nH]c2ccccc12)NC(=O)[C@H](CCCNC(=N)N)NC(=O)[C@@H](N)CCCNC(=N)N)NC(=O)[C@H](CCCNC(=N)N)NC(=O)[C@H](Cc1c[nH]c2ccccc12)NC(=O)[C@H](CCC(N)=O)NC(=O)[C@H](Cc1c[nH]c2ccccc12)NC(=O)[C@H](CCCNC(=N)N)NC(=O)[C@@H](N)CCCNC(=N)N)C(N)=O)C(N)=O [LfcinB(20–25)4] (I: H-RRWQWRK[Ahx]C-NH2 / II: H-RRWQWRK[Ahx]C-NH2 / III: H-RRWQWR / IV: H-RRWQWR; amide I:7-III:C, II:7-IV:C; disulfide I:9-II:9; N-terminus and C-terminus assumed) |  |  |  | reduced to the same extent as the one obtained after the first treatment | 16 ± 1.36 | 17.4 ± 1.77 | 9.02 ± 1.38 | 500 | not detected | 18.8 ± 1.11 | 17.4 ± 1.11 | 13.6 ± 1.06 | 12.6 ± 1.06 | 9.05 ± 1.07 | not detected |  |  |  | 
RRWQWR-NH2 (C-terminus assumed) [LfcinB(20–25)] |  |  |  |  | > 101 | > 101 | > 101 |  |  | > 101 | > 101 | > 101 | > 101 | > 101 |  | > 101 |  |  | 
RWQWRWQWR-NH2 (C-terminus assumed) [LfcinB-Pal] |  |  |  |  | 22.8 ± 1.12 | 22.6 ± 1.02 | 21.5 ± 1.05 |  |  | 62.2 ± 1.56 | > 67.3 | > 67.3 | > 67.3 | > 67.3 |  | > 67.3 | clearly improved the cytotoxic effect | low | only slightly
